In PubChem BioAssay (NCI):
Several values for one entry are separate records, joined by “and”; a condition that tells them apart may be missing. Equal values may be shown once.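 Protocol summary: plate cells (96-well), add compound at 5 concentrations, incubate 48 h, interpolate endpoints linearly. Abbreviation: GI50, concentration required for 50% inhibition of growth. TGI: concentration producing complete growth inhibition.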

Columns and labels:
Test in all cases: inhibition of tumour cell growth, NCI panel, 48 h
A549 NSCLC = system: A549 NSCLC
HT29 colon = system: HT29 colon
K-562 leukemia = system: K-562 leukemia
NCI-H226 lung = system: NCI-H226 lung
OVCAR-3 ovarian = system: OVCAR-3 ovarian
SF-268 CNS = system: SF-268 CNS
SK-MEL-5 melanoma = system: SK-MEL-5 melanoma
U251 CNS = system: U251 CNS
UACC-62 melanoma = system: UACC-62 melanoma
KM12 colon = system: KM12 colon

SMILES	GI50 (A549 NSCLC) [µM]	TGI (A549 NSCLC)	GI50 (HT29 colon)	TGI (HT29 colon)	GI50 (K-562 leukemia) [µM]	TGI (K-562 leukemia) [µM]	GI50 (NCI-H226 lung) [µM]	TGI (NCI-H226 lung)	GI50 (OVCAR-3 ovarian) [µM]	TGI (OVCAR-3 ovarian)	GI50 (SF-268 CNS) [µM]	TGI (SF-268 CNS)	GI50 (SK-MEL-5 melanoma)	TGI (SK-MEL-5 melanoma)	GI50 (U251 CNS) [µM]	TGI (U251 CNS)	GI50 (UACC-62 melanoma)	TGI (UACC-62 melanoma)	TGI (KM12 colon)	GI50 (KM12 colon)
Cn1c(NCC(CN2CCCC2)OC(=O)c2ccccc2)cc(=O)n(C)c1=O (stereo unspecified)	> 100	> 100 µM	> 100 µM	> 100 µM	> 100	> 100	> 100	> 100 µM	> 100	> 100 µM	> 100	> 100 µM	> 100 µM	> 100 µM	> 100	> 100 µM	> 100 µM	> 100 µM		
C/C(=N/NC(=S)N1CC2CCC(CC2)C1)c1cnccn1		10.4 µM		12.2 µM		0.472		1.33 µM				11 µM		2.32 µM		4.28 µM		6.08 µM	21 µM	
O=c1nc(N2CCCC2)nc(N2CCCC2)s1		> 100 µM		> 100 µM		> 100		> 100 µM				> 100 µM		> 100 µM		> 100 µM		> 100 µM	> 100 µM	
C=C1C(=O)OC2CC1C(OC(C)=O)C/C(C)=C/CC/C(C)=C\CCC2(C)O (stereo unspecified)		33.2 µM and 51.1 µM	1.69 µM and 4.87 µM	6.44 µM and 18 µM				12.1 µM and 34.2 µM		21.1 µM and 51.2 µM		22.9 µM and 20.3 µM	6.82 µM and 2.88 µM	24 µM and 10.8 µM		25.2 µM and 26.7 µM	11.3 µM and 2.89 µM	26.1 µM and 12.9 µM	32.3 µM and 19.4 µM	11.6 µM and 5.11 µM
C#CCn1c(=O)c2cccnc2n(CC#C)c1=O		> 100 µM		> 100 µM				> 100 µM				> 100 µM		> 100 µM		> 100 µM			> 100 µM	
CN(C)CC1CCCCCCCCCCCCC(CN(C)C)C1=O (stereo unspecified)		29.6 µM		18.5 µM				23.9 µM		30.7 µM		26 µM		27.8 µM		28 µM		26.1 µM	24 µM	
C=C1C(=O)c2cc3c(cc2C(c2cc(OC)c(OC)c(OC)c2)[C@@H]1C(=O)O)OCO3 (stereo partly specified)		> 100 µM		> 100 µM		> 100		> 100 µM		72.8 µM				> 100 µM		> 100 µM		> 100 µM	> 100 µM	
Cn1c2cc([N+](=O)[O-])ccc2c(=O)c2c(O)cc3c(c21)C=CC(C)(C)O3		> 100 µM		> 100 µM		> 100						> 100 µM		> 100 µM		> 100 µM		> 100 µM	> 100 µM	
NCCCNc1nc2ccc(Cl)cc2c2c(=O)c3cc(F)ccc3sc12	1.77	3.89 µM	2.12 µM	4.94 µM	1.74	3.73	8.58	25.1 µM	1.92	4.03 µM	4.1	18.2 µM	13.6 µM	30.2 µM			2.83 µM	8.41 µM	3.43 µM	1.77 µM
COC(=O)c1nc(C(=O)OC)c2c([nH]c3ccccc32)c1C(=O)OC		> 100 µM		> 100 µM				> 100 µM		> 100 µM				95.1 µM		> 100 µM		> 100 µM	> 100 µM	
N#Cc1c(-c2ccccc2)cc(-c2cccs2)c(C#N)c1N		> 100 µM		> 100 µM		> 100				> 100 µM		> 100 µM		> 100 µM		> 100 µM			> 100 µM	
